Reference: patent publication US20060067924A1, “Probiotic bacteria and methods” (priority 2003, published 2006)
“Also recorded” adds a separate entry of the source.

Experiments:
[1] = system: bacterial community of the chicken ileum; assay: T-RFLP analysis (HaeIII) of amplified 16S rDNA from the ileum of chickens fed different diets; type: in vivo; details: for main bacterial composition present in TRFLP peaks in ileum: names in order of relative abundance of peaks; for Clostridiales, % peak areas / Lactobacillaceae, % peak areas: T-RFLP
Procedure: A comparative study of bacterial community of the chicken ileum was carried out using 16S rDNA gene analysis. The intestinal microbiota is part of a complex ecosystem. This study examined the effect of the growth promoting antibiotic, virginiamycin, and other commercial diets on the distribution and community structure of intestinal bacterial flora. Bacterial communities in the intestines of chickens were compared using terminal restriction fragment length polymorphism (T-RFLP) analysis targeting the 16S ribosomal DNA combining with 16S rDNA cloning library. The chickens were fed 4 different diets including a commercial corn-soy diet, corn-soy plus growth promotant diet, corn-soy plus monensin, and a wheat diet. A group was also administrated a probiotic at 1 day age and fed a corn-soy diet. After feeding of the birds with the experimental diets, the differences in the bacterial community structures in the ileum were detected in the form of different profiles of terminal restriction fragments (T-RFs). Some of the T-RFs were commonly distributed, i.e., they were found in all samples, while others varied in distribution and correlated with specific diets. Significant differences were found between the control group (corn-soy diet) and the experimental groups by pairwise-analyzing the T-RFs=profiles.
The bacterial populations are identified using genetic analysis of the 16S RNA gene by GeneScan-Terminal Restriction Fragment Length Polymorphism (T-RFLP) using 16S universal primers and cloning and DNA sequencing of 16S PCR products. GeneScan T-RFLP requires the following steps: labeling the PCR product by using labeled primers; digesting the PCR product with restriction enzymes; separating fragments on gel; and detecting terminal fragments. The sizes of terminal fragments can be calculated based on DNA sequence analysis.
In some experiments, the PCR products were loaded onto a gel from which bands were cut and eluted in 35 μl of sterile filtered distilled water using a QIAquick gel extraction kit (Qiagen, Chatsworth, Calif.). The concentrations of the fluorescently labeled PCR products were measured on a spectrophotometer (DU Series 500, Beckman, Fullerton, Calif.). About 100 ng of purified PCR products was digested in a 10 μl volume for 4 hours at 37 C with 10 U of HaeIII (isoschizomer BsuRI; Fermentas, MBI). Restriction digests were desalted with the QIAquick Nucleotide Removal Kit (Qiagen). The fluorescently labeled terminal restriction fragments (T-RFs) were analyzed by electrophoresis on an automatic sequence analyzer (ABI PRISM 310 DNA Sequencer; PE Biosystems, Foster City, Calif.) in GeneScan mode. Aliquots (2 ul) of T-RFs were mixed with 2 μl of deionized formamide, 0.5 μl of DNA fragment length size standard GS-500 (PE Biosystems). The T-RF mixture was denatured at 94° C. for 5 min and immediately chilled on ice prior to electrophoresis. After electrophoresis, the lengths of fluorescently labeled T-RFs were determined by comparison with internal standards by using GeneScan software (ABI). For each sample, peaks over a threshold of 50 units above background fluorescence were analyzed by manually aligning fragments to the size standard. To avoid detection of primers and uncertainties of size determination, terminal fragments smaller than 35 bp and larger than 525 bp were excluded from the analysis. Reproducibility of patterns was confirmed for repeated T-RFLP analysis of 16S gene amplification using the same DNA extracts from pooled samples.
The information index (Shannon and Weaver (1963) “The Mathematical Theory of Communication,” p. 117, University of Illinois Press, Urbana, Ill.) was used to initially evaluate the diversity of the microbial communities. [formula] Where n is possible categories in a data set and that their proportions are pi, . . . , pn. The H values are the measure of diversity for this system. […]

[2] = system: Lachnospira multiparus-like organisms; details: monensin supplementation; cited from earlier work
cecum flora = assay: 16S rDNA clone library analysis of the cecum flora, monensin treatment; type: in vivo, chicken; details: 28 d
[3] = system: bacterial flora of the chicken ileum; assay: 16S rDNA clone library analysis of the ileal bacterial community of chickens fed diets with feed additives; type: in vivo
[4] = pigs, 50 ppm, compared to controls; cited from earlier work
[5] = ileum, 7 days of age, 16S rDNA clone library
[6] = ileum, 28 days of age, 16S rDNA clone library
[7] = vs control fed the same feed without the antibiotic

For `CC[C@@]1([C@@H]2O[C@@H]([C@H]3O[C@@](O)(CO)[C@H](C)C[C@@H]3C)C[C@@H]2C)CC[C@H]([C@]2(C)CC[C@]3(C[C@H](O)[C@@H](C)[C@@H]([C@@H](C)[C@@H](OC)[C@H](C)C(=O)O)O3)O2)O1` [Monensin, monensin], the “main bacterial composition present in TRFLP peaks in ileum” value (“main bacterial composition present” below) ([1]; 3 day) was “Enterococcus sp; also recorded: E. coli”, the “main bacterial composition present” value ([1]; 7 day) was “C. irregularis; also recorded: C. lituseburense; also recorded: L. acidophilus” and the “main bacterial composition present” value ([1]; 14 day) was “C. lituseburense; also recorded: C. irregularis; also recorded: Clostridium sp; also recorded: L. crispatus”. The “main bacterial composition present” value ([1]; 21 day) was “C. irregularis; also recorded: C. lituseburense; also recorded: L. crispatus”, the “main bacterial composition present” value ([1]; 28 day) was “C. irregularis; also recorded: L. crispatus; also recorded: L. reuteri” and the “main bacterial composition present” value ([1]; 49 day) was “C. lituseburense; also recorded: L. crispatus”. The “inhibition of C. irregularis” value ([1]; chicken ileum) was “not inhibited”, the “Clostridiales, % peak areas” value ([1]; ileum, 7 days of age) was 92.89% and the “Lactobacillaceae, % peak areas” value ([1]; ileum, 7 days of age) was 7.1%. The “Clostridiales, % peak areas” value ([1]; ileum, 28 days of age) was 73.2%, the “Lactobacillaceae, % peak areas” value ([1]; ileum, 28 days of age) was 27.2% and the “relative peak areas of Lactobacillus” value ([1]; ileum, whole group (control 73.22%)) was 19.25%. The “decrease of relative numbers of Lachnospira multiparus-like organisms” value [2] was “about 2 fold”, the “cecum flora: Actinobacterium” value (cecum flora) was 43% and the “cecum flora: Bacteroides” value (cecum flora) was 1%. The “cecum flora: Clostridium spp.” value (cecum flora) was 27%, the “cecum flora: Eubacterium” value (cecum flora) was 12% and the “cecum flora: Lactobacillus spp.” value (cecum flora) was 6%. For the same molecule, the “cecum flora: Ruminococcus” value (cecum flora) was 10%, the “ileum flora: Clostridium spp.” value ([3]; 3 d) was 1 [17] % and the “ileum flora: L. crispatus” value ([3]; 3 d) was 1 [4] %. The “ileum flora: L. salivarius” value ([3]; 3 d) was 1%, the “ileum: Clostridiaceae” value ([3]; 3 d) was 2 [17] % and the “ileum: Enterococcus” value ([3]; 3 d) was 9 [3] %. For the same molecule, the “ileum: Lactobacillus spp.” value ([3]; 3 d) was 3 [60] %, the “ileum: α-Proteobacteria” value ([3]; 3 d) was 1 [1] % and the “ileum: β-Proteobacteria” value ([3]; 3 d) was 3 [5] %. The “ileum: δ-Probeobacteria” value ([3]; 3 d) was 82 [2] %, the “ileum flora: C. irregularis” value ([3]; 7 d) was 45% and the “ileum flora: C. lituseburense” value ([3]; 7 d) was 24%. For the same molecule, the “ileum flora: Clostridium spp.” value ([3]; 7 d) was 13 [1] %, the “ileum flora: L. acidophilus” value ([3]; 7 d) was 4 [57] % and the “ileum flora: L. crispatus” value ([3]; 7 d) was 4 [1] %. For the same molecule, the “ileum flora: L. reuteri” value ([3]; 7 d) was 3%, the “ileum: Clostridiaceae” value ([3]; 7 d) was 84 [1] % and the “ileum: Enterococcus” value ([3]; 7 d) was 3 [16] %. The “ileum: Lactobacillus spp.” value ([3]; 7 d) was 11 [64] %, the “ileum flora: C. lituseburense” value ([3]; 14 d) was 31% and the “ileum flora: L. crispatus” value ([3]; 14 d) was 17 [8] %. The “ileum: Bifidobacter” value ([3]; 14 d) was 2%, the “ileum: Clostridiaceae” value ([3]; 14 d) was 44 [7] % and the “ileum: Enterococcus” value ([3]; 14 d) was 33 [13] %. The “ileum: Lactobacillus spp.” value ([3]; 14 d) was 21 [64] %, the “ileum flora: C. irregularis” value ([3]; 21 d) was 19% and the “ileum flora: C. lituseburense” value ([3]; 21 d) was 22%. For the same molecule, the “ileum flora: L. crispatus” value ([3]; 21 d) was 19 [3] %, the “ileum flora: L. salivarius” value ([3]; 21 d) was 7 [5] % and the “ileum: Bacteroides” value ([3]; 21 d) was 2 [3] %. For the same molecule, the “ileum: Clostridiaceae” value ([3]; 21 d) was 47 [9] %, the “ileum: Enterococcus” value ([3]; 21 d) was 11 [3] % and the “ileum: Lactobacillus spp.” value ([3]; 21 d) was 27 [66] %. The “ileum flora: C. irregularis” value ([3]; 28 d) was 53%, the “ileum flora: C. lituseburense” value ([3]; 28 d) was 7% and the “ileum flora: Clostridium spp.” value ([3]; 28 d) was 1 [6] %. The “ileum flora: L. crispatus” value ([3]; 28 d) was 17 [75] %, the “ileum flora: L. reuteri” value ([3]; 28 d) was 11 [7] % and the “ileum flora: L. salivarius” value ([3]; 28 d) was 2 [2] %. For the same molecule, the “ileum: Bacillus” value ([3]; 28 d) was 1%, the “ileum: Clostridiaceae” value ([3]; 28 d) was 62 [7] % and the “ileum: Enterococcus” value ([3]; 28 d) was 1 [3] %. The “ileum: Lactobacillus spp.” value ([3]; 28 d) was 32 [88] %, the “ileum: Streptococcus” value ([3]; 28 d) was 1 [1] % and the “ileum flora: C. irregularis” value ([3]; 49 d) was 3%. The “ileum flora: C. lituseburense” value ([3]; 49 d) was 42%, the “ileum flora: Clostridium spp.” value ([3]; 49 d) was 1 [19] % and the “ileum flora: L. aviaries” value ([3]; 49 d) was 16%. For the same molecule, the “ileum flora: L. crispatus” value ([3]; 49 d) was 20 [36] %, the “ileum flora: L. reuteri” value ([3]; 49 d) was 5 [1] % and the “ileum flora: L. salivarius” value ([3]; 49 d) was 3 [28] %. For the same molecule, the “ileum: Bacillus” value ([3]; 49 d) was 5 [4] %, the “ileum: Bacteroides” value ([3]; 49 d) was 1 [1] % and the “ileum: Clostridiaceae” value ([3]; 49 d) was 46 [19] %. For the same molecule, the “ileum: Enterococcus” value ([3]; 49 d) was 5 [2] %, the “ileum: Lactobacillus spp.” value ([3]; 49 d) was 45 [70] % and the “ileum: Streptococcus” value ([3]; 49 d) was 5%. The “Clostridiales, % of seq” value [3, 5] was 82.4%, the “Enterococcus/Streptococcus, % of seq” value [3, 5] was 2.7% and the “Lactobacillaceae, % of seq” value [3, 5] was 12.9%. For the same molecule, the “Proteobacteria α, % of seq” value [3, 5] was 1.35%, the “Bacillaceae, % of seq” value [3, 6] was 1.05% and the “Clostridiales, % of seq” value [3, 6] was 63.2%. For the same molecule, the “Enterococcus/Streptococcus, % of seq” value [3, 6] was 2.1%, the “Lactobacillaceae, % of seq” value [3, 6] was 31.6% and the “Proteobacteria α, % of seq” value [3, 6] was 2.1%. The clostridial sequences [3, 7] was “increased” and the “overall numbers of Lactobacillus sequences” value [3, 7] was “reduced”.
For virginiamycin, the “enhancement in feed conversion” value [4] is listed as 7%, the “improvement in growth rate” value [4] is listed as 10% and the “Lactobacillus species in the ileum vs controls” value ([3]; 28 and 49 days of age) is listed as “significantly fewer”.
